The assay concerns the target T1, C202S (C218S) mutant MKK7 kinase domain (Homo sapiens, UniProt O14733, C202S).
T1 sequence (O14733 1-419 C202S): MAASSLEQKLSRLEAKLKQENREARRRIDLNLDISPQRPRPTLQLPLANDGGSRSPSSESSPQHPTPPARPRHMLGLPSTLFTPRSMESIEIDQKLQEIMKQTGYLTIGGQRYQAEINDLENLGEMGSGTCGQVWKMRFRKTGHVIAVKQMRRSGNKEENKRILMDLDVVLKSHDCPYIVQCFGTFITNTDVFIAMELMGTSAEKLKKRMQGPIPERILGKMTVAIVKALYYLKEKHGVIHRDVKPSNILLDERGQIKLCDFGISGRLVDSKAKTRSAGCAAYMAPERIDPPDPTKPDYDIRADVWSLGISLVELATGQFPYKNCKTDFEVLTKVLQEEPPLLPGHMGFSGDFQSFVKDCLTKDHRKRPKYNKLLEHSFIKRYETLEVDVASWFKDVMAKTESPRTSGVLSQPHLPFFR
Particulars: binder.
Take `O=C1NC(=O)C(=Cc2ccc3c(c2)OC(F)(F)O3)S1` [K00828, PI3Kg inhib II (528108)]: the “ΔTm C202S” value is 0.6 °C.

With `Brc1c(Br)c(Br)c2[nH]nnc2c1Br` [K00040, TBB (218697)], the “ΔTm C202S” value turned out to be 3.3 °C.

With `Cc1cc(Nc2cc(C3CC3)[nH]n2)nc(Nc2ccc(CC#N)cc2)n1` [ASC69], the “ΔTm C202S” value turned out to be 4.9 °C.

Turning to `O=C1Nc2ccccc2/C1=C/c1c[nH]cn1` [K00007], the “ΔTm C202S” value was 2.3 °C.

In the case of `CCN1CCN(Cc2ccc(NC(=O)c3ccc(C)c(C=Cc4cnc5[nH]ccc5c4OC)c3)cc2C(F)(F)F)CC1` [K03427, HG-6-64-01], the “ΔTm C202S” value was 3.5 °C.

For the origin of these results see article doi:10.1101/2020.06.11.145995v1 (biorxiv, 2020).
